From patent US20250376479A1, “EXATECAN DERIVATIVES AND USES THEREOF” (priority 2024, published 2025) come the findings set out here.

Broadly, the IC50 is the point on the concentration scale where inhibition reaches its midpoint. What is called Papp A→B is how fast a substance crosses the layer from the apical side.

In one data set the test system is SHP77. Kind of data set: Cytotoxicity test, luminescent cell viability. It counts as cell-based. As to conditions: Homo sapiens; SHP77 (SCLC), 72-hour incubation. The text has this: (§1) Cytotoxicity of compounds was investigated using SHP77 (SCLC ATCC No. CRL-2195), NCI-H82 (SCLC, Jennio-bio No. JNO-22126A), NCI-H524 (SCLC, Pricella NO. CL-0403), NCI-H226 (Lung cancer, Pricella NO. CL-0396), NCI-H460 (LCLC, Pricella NO. CL-0299), OVCAR3 (Ovarian cancer, ATCC No. HTB-161), OV90 (Ovarian cancer, ATCC No. CRL-11732), LS1034 (Colon carcinoma, cobioer No. CBP60013), HT55 (Colon carcinoma, cobioer No. CBP60012), MDA-MB-468 (Breast cancer, ATCC No.htb-132) and NCI-N87 (Stomach cancer, ATCC No.CRL-5822). In brief, 5,000 cells/well of cancer cells were platted in white 96-well assay plates with flat clear bottom (Cat. No. BS-MP-96W, Biosharp) (excluding edge wells, which contained medium or PBS only) in 90 μL basic culture medium and were grown at 37° C. in a humidified incubator at 5% CO2 atmosphere. After incubation overnight, each compound was added to the respective wells in an amount of 10 μl of 10× concentrate tests from 100 nM to 0.015 nM. After additional 72-hour incubation, plates were removed from incubator and equilibrated to room temperature. After approximately 30 mins, 50 μL of Cell counting-lite 2.0 Luminescent Cell Viability Assay (Cat. No. G7573, Promega) were added to each well. After shaking the plates at 450 rpm for 3 mins followed by 10-min incubation without shaking, luminescence was measured on the Envision plate reader (Equipment No. 2104, PerkinElmer) with integration time of 250 ms per well. Curves of luminescence versus concentration (nM) were fitted with GraphPad Prism Software.

In another data set the test system is HT55. Kind of data set: Cytotoxicity test, luminescent cell viability. As to conditions: Homo sapiens; HT55 (Colon carcinoma), 72-hour incubation. It counts as cell-based.
Excerpt: as §1

In the next data set the test system is NCI-N87. Kind of data set: Cytotoxicity test, luminescent cell viability. It counts as cell-based. As to conditions: Homo sapiens; NCI-N87 (Stomach cancer), 72-hour incubation; read-out: IC50 NC-N87.
Excerpt: as §1

In the next data set the test system is LS1034. Put plainly: Cytotoxicity test, luminescent cell viability. The data set is classed as cell-based. As to conditions: Homo sapiens, LS-1034; LS1034 (Colon carcinoma), 72-hour incubation.
Excerpt: as §1

A further data set has as its system MDA-MB-468. Put plainly: Cytotoxicity test, luminescent cell viability. It counts as cell-based. As to conditions: Homo sapiens; MDA-MB-468 (Breast cancer), 72-hour incubation.
Excerpt: as §1

For the next data set, the system named is OV90. Put plainly: Cytotoxicity test, luminescent cell viability. It counts as cell-based. Conditions: Homo sapiens, OV-90; OV90 (Ovarian cancer), 72-hour incubation.
Excerpt: as §1

The subject of another data set is NCI-H226. Kind of data set: Cytotoxicity test, luminescent cell viability. The data set is classed as cell-based. Conditions: Homo sapiens; NCI-H226 (Lung cancer), 72-hour incubation.
Excerpt: as §1

In the next data set the test system is NCI-H460. Kind of data set: Cytotoxicity test, luminescent cell viability. It counts as cell-based. As to conditions: Homo sapiens; NCI-H460 (LCLC), 72-hour incubation.
Excerpt: as §1

A further data set has as its system NCI-H524. Put plainly: Cytotoxicity test, luminescent cell viability. As to conditions: Homo sapiens; NCI-H524 (SCLC), 72-hour incubation. It counts as cell-based.
Excerpt: as §1

The test system of another data set is OVCAR3. Put plainly: Cytotoxicity test, luminescent cell viability. It counts as cell-based. Conditions: Homo sapiens, OVCAR-3; OVCAR3 (Ovarian cancer), 72-hour incubation.
Excerpt: as §1

The next data set deals with NCI-H82. Put plainly: Cytotoxicity test, luminescent cell viability. The data set is classed as cell-based. As to conditions: Homo sapiens; NCI-H82 (SCLC), 72-hour incubation.
Excerpt: as §1

Data set [1] can be described thus: Membrane permeability test (Caco-2 monolayer). It counts as in vitro ADME. As to conditions: human, Caco-2, pH 7.4. As for the experimental part:
Caco-2 cells purchased from ATCC were seeded onto 0.4 μm pore polycarbonate membranes (PC) in 96-well Corning Insert plates at 3.5×10^4 cells/cm^2, and refreshed medium every 4˜5 days until to the 21st to 28th day for confluent cell monolayer formation.
The transport buffer in the study was HBSS with 10.0 mM HEPES at pH 7.40±0.05. Each test compound was tested at 2.00 μM in the presence or absence of 1.00 μM zosuquidar bi-directionally in duplicate. Digoxin was tested at 10.0 μM in the presence or absence of 1.00 μM zosuquidar bi-directionally in duplicate, while nadolol and metoprolol were tested at 2.00 μM in the absence of zosuquidar in A to B direction in duplicate. Final DMSO concentration was adjusted to less than 1%. The plate was incubated for 2 hours in CO2 incubator at 37.0° C., with 5% CO2 at saturated humidity without shaking. And all samples after mixed with acetonitrile containing internal standard were centrifuged at 3220×g for 10 min. Concentrations of test compounds in starting solution, donor solution and receiver solution were quantified by LC-MS/MS methodologies, using peak area ratio of analyte/internal standard. And permeation of lucifer yellow through the monolayer was measured to evaluate the cellular integrity.
The apparent permeability coefficient Papp (cm/s) was calculated using the equation: […]
where dCr/dt is the cumulative concentration of compound in the receiver chamber as a function of time; Vr is the solution volume in the receiver chamber (0.0750 mL on the apical side, 0.250 mL on the basolateral side); A is the surface area for the transport, i.e., 0.143 cm2 for the area of the monolayer; C0 is the initial concentration in the donor chamber.
On the technique in general: Caco-2 cells form a polarised layer with tight junctions and transporters.

With `CC[C@@]1(O)C(=O)OCc2c1cc1n(c2=O)Cc2c-1nc1cc(F)c(C)c3c1c2[C@H](NC(=O)C(C)C)CC3` [Compound 10], the IC50 in the data set with SHP77 was found to be 0.101 µM; in the data set on HT55, 0.0696 µM; in the data set with NCI-N87, 0.0052 µM; with LS1034, 0.114 µM; in the data set with MDA-MB-468, 0.0029 µM; with OV90, 0.0098 µM. Besides, the IC50 stood at 0.0051 µM in the data set with NCI-H226; 0.0074 µM in the data set with NCI-H460; 0.0179 µM with NCI-H524; 0.0681 µM with OVCAR3; 0.0617 µM in the data set with NCI-H82. Further, the Papp A→B at 2 h, 2 μM in [1] stood at 3.58 nm/s.

Regarding `CC[C@@]1(O)C(=O)OCc2c1cc1n(c2=O)Cc2c-1nc1cc(F)c(C)c3c1c2[C@H](NC(=O)C1CCC1)CC3` [Compound 6], the IC50 with SHP77 stood at 0.068 µM; in the data set on HT55, 0.215 µM; in the data set on NCI-N87 it was 0.0035 µM; in the data set with LS1034, 0.0553 µM; in the data set with MDA-MB-468, 0.0025 µM; in the data set with OV90, 0.0089 µM. Also, the IC50 was determined as 0.0038 µM with NCI-H226; 0.0068 µM in the data set on NCI-H460; 0.0099 µM with NCI-H524; 0.0893 µM in the data set on OVCAR3; 0.0573 µM in the data set on NCI-H82. The same compound returned an apical-to-basolateral permeability (Papp A→B) at 2 h, 2 μM in data set [1] of 2.64 nm/s.

As to `CC[C@@]1(O)C(=O)OCc2c1cc1n(c2=O)Cc2c-1nc1cc(F)c(C)c3c1c2[C@H](NC(=O)CN(C)C)CC3` [Compound 2], the IC50 is 0.301 µM in the data set with SHP77; 0.315 µM in the data set with HT55; 0.013 µM with NCI-N87; 0.205 µM with LS1034; 0.0108 µM in the data set with MDA-MB-468; 0.0152 µM with OV90. Further, the IC50 turned out to be 0.021 µM in the data set with NCI-H226; 0.0155 µM with NCI-H460; 0.0404 µM in the data set with NCI-H524; 0.208 µM in the data set with OVCAR3; 0.154 µM with NCI-H82. Moreover, in [1], the Papp A→B at 2 h, 2 μM is 1.99 nm/s.

As to `CC[C@@]1(O)C(=O)OCc2c1cc1n(c2=O)Cc2c-1nc1cc(F)c(C)c3c1c2[C@H](NC(=O)CC(C)C)CC3` [Compound 8], the IC50 was 0.156 µM with SHP77; 0.11 µM with HT55; 0.0047 µM with NCI-N87; 0.159 µM with LS1034; 0.0021 µM in the data set with MDA-MB-468; 0.0178 µM with OV90. For the same compound, the IC50 with NCI-H226 turned out to be 0.006 µM; with NCI-H460, 0.0045 µM; in the data set on NCI-H524 it was 0.021 µM; with OVCAR3 it was 0.0957 µM; in the data set on NCI-H82, 0.0538 µM.

Turning to `CC[C@@]1(O)C(=O)OCc2c1cc1n(c2=O)Cc2c-1nc1cc(F)c(C)c3c1c2[C@H](NC(=O)C1CC1)CC3` [Compound 3], the IC50 amounted to 0.06 µM in the data set with SHP77; 0.0681 µM in the data set on HT55; 0.0053 µM in the data set with NCI-N87; 0.0417 µM in the data set on LS1034; 0.0021 µM with MDA-MB-468; 0.0051 µM in the data set with OV90. Also, the IC50 was 0.0036 µM with NCI-H226; 0.0089 µM in the data set with NCI-H460; 0.0113 µM in the data set with NCI-H524; 0.0912 µM in the data set on OVCAR3; 0.0502 µM in the data set on NCI-H82. This compound also gave a Papp A→B at 2 h, 2 μM in data set [1] of 2.79 nm/s.

`CCCCC(=O)N[C@@H]1CCc2c(C)c(F)cc3nc4c(c1c23)Cn1c-4cc2c(c1=O)COC(=O)[C@]2(O)CC` [Compound 1]: the IC50 in the data set with SHP77 was 0.0457 µM; with HT55 it was 0.13 µM; in the data set on NCI-N87, 0.0062 µM; with LS1034 it was 0.0635 µM; in the data set on MDA-MB-468, 0.0025 µM; in the data set on OV90 it was 0.0039 µM. Also, the IC50 with NCI-H226 is 0.0048 µM; in the data set on NCI-H460, 0.0102 µM; with NCI-H524, 0.0044 µM; with OVCAR3, 0.0929 µM; in the data set on NCI-H82, 0.096 µM. Besides, in [1], the Papp A→B at 2 h, 2 μM was determined as 3.65 nm/s.

Take `CC[C@@]1(O)C(=O)OCc2c1cc1n(c2=O)Cc2c-1nc1cc(F)c(C)c3c1c2[C@H](NC(=O)C1COC1)CC3` [Compound 4]: the IC50 is 0.655 µM in the data set with SHP77; 0.349 µM in the data set on HT55; 0.0296 µM in the data set with NCI-N87; 0.249 µM in the data set with LS1034; 0.0067 µM in the data set on MDA-MB-468; 0.076 µM in the data set with OV90. Further, the IC50 was found to be 0.0446 µM with NCI-H226; 0.0312 µM in the data set with NCI-H460; 0.0906 µM in the data set on NCI-H524; 0.395 µM in the data set with OVCAR3; 1.5 µM in the data set on NCI-H82. Also, the Papp A→B at 2 h, 2 μM in data set [1] stood at 0.26 nm/s.

For the compound `CC[C@@]1(O)C(=O)OCc2c1cc1n(c2=O)Cc2c-1nc1cc(F)c(C)c3c1c2[C@H](NC(=O)C1CCCO1)CC3` (some centres unmarked) [Compound 7], the IC50 with SHP77 worked out at 0.236 µM; with HT55, 0.104 µM; with NCI-N87, 0.0074 µM; in the data set with LS1034, 0.17 µM; with MDA-MB-468 it was 0.0048 µM; in the data set on OV90, 0.026 µM. Also, the IC50 was 0.0179 µM in the data set on NCI-H226; 0.0112 µM in the data set with NCI-H460; 0.0395 µM in the data set on NCI-H524; 0.144 µM in the data set with OVCAR3; 0.171 µM in the data set on NCI-H82. Besides, the Papp A→B at 2 h, 2 μM in [1] was 5.6 nm/s.

Turning to `CC[C@@]1(O)C(=O)OCc2c1cc1n(c2=O)Cc2c-1nc1cc(F)c(C)c3c1c2[C@H](NC(=O)CCOC)CC3` [Compound 5], the IC50 in the data set with SHP77 turned out to be 0.202 µM; in the data set with HT55 it was 0.192 µM; with NCI-N87 it was 0.0168 µM; with LS1034, 0.158 µM; in the data set with MDA-MB-468, 0.0051 µM; with OV90 it was 0.0096 µM. Moreover, the IC50 with NCI-H226 amounted to 0.0098 µM; in the data set with NCI-H460 it was 0.0194 µM; in the data set on NCI-H524, 0.0215 µM; with OVCAR3, 0.27 µM; in the data set with NCI-H82, 0.288 µM. In data set [1], the apparent permeability from apical to basolateral (Papp A→B) at 2 h, 2 μM came to 1.05 nm/s.
